From US8287889B2 (Wuhan Liyuanheng Pharmaceutical Technology Ltd., priority 2002, dated 2012) come the findings set out here.

One data set has as its system Kunming mice. To be noted: 10 mice. As to the method:
The mice were provided by Medical school of Tongji University and with a batch No. 19-052.
Commonly, the lethality of the mice was regarded as positive index. After the death mice of each group were recorded and calculated and a LD50 value was calculated according to the Bliss statistical method.

Data set [1] has as its system intestinal cancer cell (HT-29). As to the kind of experiment: In vitro inhibition of intestinal cancer cell, time course. Format: cell-based. On the procedure: (§1) The relation between administering period and curable effect was intensely observed. That is to say, the inhibiting rate would be recorded according to different administering time of the medicine, such as 2, 3, 4 days administration. It is discovered that administered raw medicine of low concentration, such as 0.1 μg, 0.5 μg, 2 μg/ml, had weak inhibiting effects towards three different cancer cells. As the administering period is extended, the inhibiting effect would gradually be strengthened. […] The extension of administering period could not promptly increase the inhibiting effect. […] In short, for HT-29, A549, and Hep-G2, the maximum inhibiting effect occurred mostly at the fourth administering day, therefore illustrating a better slow-release effect of such medicine.

The test system of another data set is lung cancer cell (A549). As to the kind of experiment: In vitro inhibition of lung cancer cell, time course. The data set is classed as cell-based. On the procedure:
as §1

The test system of data set [2] is liver cancer cell (Hep-G2). As to the kind of experiment: In vitro inhibition of liver cancer cell, time course. The data set is classed as cell-based. As to the method:
as §1

Where [3] appears, read: administering dosage 2250, intravenous.
Where [4] appears, read: administering dosage 3713, intravenous.
[5] abbreviates: administering dosage 6126, intravenous.
The mark [6] stands for this setting: administering dosage 10108, intravenous.
Where [7] appears, read: administering dosage 16678, intravenous.

Like-named read-outs stand apart in the source and are kept apart here.

In the case of `C[C@H]1[C@H](C)CC[C@]2(C(=O)O)CC[C@]3(C)C(=CC[C@@H]4[C@@]5(C)CC[C@H](O)C(C)(C)[C@@H]5CC[C@]43C)[C@H]12` [Ursolic Acid for Injection, ursolic acid], the “Death number (r)” value in the data set on Kunming mice (setting [3]) is 0; with Kunming mice (setting [4]), 1; in the data set with Kunming mice (setting [5]) it was 3; in the data set with Kunming mice (setting [6]) it was 6; in the data set on Kunming mice (setting [7]), 10. Also, the “Lethal rate(%)” value in the data set on Kunming mice (setting [3]) was determined as 0%; in the data set with Kunming mice (setting [4]) it was 10%; in the data set on Kunming mice (setting [5]), 30%; in the data set with Kunming mice (setting [6]), 60%; in the data set on Kunming mice (setting [7]) it was 100%. Moreover, the “Probability unit (y)” value with Kunming mice (setting [3]) amounted to 0; with Kunming mice (setting [4]) it was 3.72; in the data set with Kunming mice (setting [5]), 4.48; in the data set with Kunming mice (setting [6]), 5.25. Besides, the peak inhibiting effect in data set [1] (HT-29, 10, 50 μg/ml, third day of administration) is given as 95%; in the data set with lung cancer cell (A549) (A549, 10, 50 μg/ml, third day of administration), 95%; in data set [2] (Hep-G2, 10, 50 μg/ml, third day of administration), 95%. The inhibiting effect entry in data set [1] (HT-29, high concentration 10, 50 μg/ml) is “strong”; in data set [1] (HT-29, low concentration 0.1 μg, 0.5 μg, 2 μg/ml) it was “weak”; in the data set on lung cancer cell (A549) (A549, high concentration 10, 50 μg/ml) it was “strong”; with lung cancer cell (A549) (A549, low concentration 0.1 μg, 0.5 μg, 2 μg/ml), “weak”; in data set [2] (Hep-G2, high concentration 10, 50 μg/ml) it was “strong”; in data set [2] (Hep-G2, low concentration 0.1 μg, 0.5 μg, 2 μg/ml), “weak”.
